Experimental data from patent publication US6458381B1, “Lipids and their use, for example, in liposomes” (priority 1996, dated 2002).

What was measured:
Assay type in all cases: cell-based, human
[1] = system: HeLa cells; assay: Intracellular delivery of fluorescein labelled phosphothioate oligonucleotide, fluorescent microscopy
Procedure: HeLa cells (plated one day before the experiment, 2×10^5 cells per well, 6-well plate) were grown on glass microscope slides in 2 ml of RPMI 1640 supplemented with 10% FCS. Before the experiment, the medium was replaced with RPMI 1640 without serum.
Formation of oligonucleotide-compound (1) complexes was done as follows. 10 μg of phosphothioate oligonucleotide was dissolved in […] of transfection buffer. 16 μg and 50 μg of compound (1) were diluted with transfection buffer to the final volume of 100 μl. The two solutions were mixed together and incubated for 10 min. Oligonucleotide solution without compound (1) was diluted with 100 μl of transfection buffer. The resultant solutions (200 μl per well) were added to the cell cultures (final concentration of oligonucleotide was about 1 μM, compound (1) 8 μM and 25 μM). The complexes were incubated with the cells for 4 hours. The medium was then substituted with a complete growth medium.
At 4 and 24 hours, cells were washed three times with PBS and fixed with 1% glutaraldehyde solution for 15 min. After fixation, cells were washed three times with PBS and mounted in glycerol mounting solution (10 mM phosphate, 150 mM NaCl, 70% glycerol, pH 7.5). The localization of fluorescein labelled phosphothioate oligonucleotide was determined by fluorescent microscopy, using a Zeiss fluorescent microscope.

[2] = system: HeLa cells; assay: Intracellular delivery of fluorescein labelled anionic polypeptide, fluorescent microscopy; conditions: 1 μM labelled polyanion in the presence of 25 μM compound (1)
[3] = system: K562 cells; assay: Transfection of K562 suspension cells with pCMVL, luciferase assay; conditions: K562, presence of serum
Procedure: HeLa (CCL2, epitheloid carcinoma, human), COS-7 (CRL 1651, kidney, SV-40 transformed, African green monkey), HT-29 (HTB 38, adenocarcinoma, colon, human), CV-1 (CCL 70, kidney, African green monkey), 818-4 (adenocarcinoma, pancreas, human), H4IIE (CRL 1548; hepatoma, rat), K562 (CCL 243; chronic myelogenous leukemia, human), HL-60 (CCL 240; promyelotic leukemia, human) were grown in 5% CO2 at 37° C. on plastic tissue culture flasks in RPMI 1640 or DMEM with 10% fetal calf serum and supplemented with penicillin at 100 units per ml, streptomycin at 100 μg per ml, 2 mM glutamine and 0.1 μM dexamethasone for H4IIE cells.
At 24 hours before transfection, the cells were placed in fresh complete growth medium. Just before transfection, the cells were collected, resuspended in fresh medium with or without 10% FCS at 0.25×10^6 cells per ml, and placed in 24-well plates, 2 ml per well.
The cells were normally harvested 24 hours after transfection (the time of harvesting is an important variable and should be optimized), collected by centrifugation and resuspended in 10 ml of PBS, again centrifuged, and the cell pellet was transferred into a 1.5 ml Eppendorf tube with 1 ml PBS. The cells were centrifuged in the Eppendorf centrifuge (14000 rpm for 20 sec), The resulting cells were lysed in 100 μl of lysis buffer (described above). […]

[4] = system: HeLa cells; assay: Transfection of HeLa cells with pCMVL, luciferase assay
Procedure: The cells were resuspended in fresh medium and placed either in 24-well plates (5×10^4 cells per well) or in 6-well plates (2-2.5×10^4 cells per well). Just before transfection, the cells were placed in fresh medium with or without 10% FCS. In general, cells were transfected at 50 to 70% confluence. […] Cell debris was removed by centrifugation (14000 rpm for 2 min). Usually, enzyme activity (see below) was determined directly after cell lysis.
Plasmid DNA (from a stock solution of a concentration of about 1 mg/ml) and cationic lipids (from a stock solution of a concentration 1 to 2 mg/ml) were diluted separately in 1.5 ml Eppendorf tubes with 10 mM Hepes, 0.9% NaCl buffer, pH 7.4, to the final volume of 100 μl. The amount of DNA in typical transfections varied from 1 to 2 μg per 100 μl. The amount of a cationic lipid varied from 0 to 20 μg per 100 μl. Two solutions were mixed together to form a DNA-lipid solution. After incubation for 10 min at room temperature the resultant DNA-lipid solution was added to the cell cultures, growing as described before, and gently mixed. Alternatively, the DNA-lipid solution was diluted with 800 μl (for 24- or 6-well plates) of the appropriate medium (+/−FCS) and mixed. The diluted solution was then overlayed onto the cells, rinsed with the appropriate medium. […] A typical incubation time in the absence of serum was 4 hours. The transfection medium was then substituted with a complete growth medium. In the presence of serum, the transfection medium was usually not replaced and the cells continued to grow in the presence of complexes until the end of experiments (one step transfection).
Luciferase assay. […] The luciferase assay was performed by adding 5 to 10 μl of cell extract.
Just before transfection, the medium was removed and cells were supplied with 1 ml fresh medium with or without serum. […] In the absence of serum, the transfection medium was removed after 4 hours, and the cells were supplied with 1 ml fresh serum supplemented medium. […]

Compound | fluorescence intensity at 25 μM compared with 8 μM compound (1) ([1]; 1 μM fluorescein labelled oligonucleotide) | fluorescence of cells ([1]; 1 μM fluorescein labelled oligonucleotide in the presence of compound (1) (8 μM and 25 μM), 4 hours) | fluorescence of cells ([1]; 1 μM fluorescein labelled oligonucleotide in the presence of compound (1), after 24 hours) | fluorescence of cells ([2]; after 45 min) | fluorescence of cells ([2]; after 24 hours) | transfection higher than obtained with DOTAP [3] | transfection in comparison to DOTAP transfection ([4]; absence of serum) [fold] | transfection in comparison to DOTAP transfection ([4]; presence of serum) [fold] | time after which the same luciferase activity (4.5×10^4 light units) was observed ([4]; with serum) [hours] | fluorescence of cells ([1]; 1 μM fluorescein labelled oligonucleotide alone, after 4 and 24 hours, without serum) | effect of serum on fluorescence and distribution ([1]; experiments performed in the presence of serum)
CCCCCCCC/C=C\CCCCCCCC(=O)OCCN(CCOC(=O)CCCCCCC/C=C\CCCCCCCC)C(=O)[C@@H](N)CCCCN.Cl.Cl [Compound 1, L-Lysine-bis(O,O′-oleoyl-β-hydroxyethyl)amide dihydrochloride] | higher | very bright punktate fluorescence in the cytoplasm | very clear punktate fluorescence in the cytoplasm | bright cytoplasmic punktate fluorescence | very bright punktate fluorescence in the cytoplasm | more than 10 fold | 6 | 12 | 3 | – | –
5′-ACT TGG ATA CGC ACG-fluorescein-3 [fluorescein labelled oligonucleotide, reference compound] | – | – | – | – | – | – | – | – | – | faint fluorescence | did not change the overall fluorescence and distribution
